Measurements as given in ChEMBL document CHEMBL3232855, “The discovery of N-((2H-tetrazol-5-yl)methyl)-4-((R)-1-((5r,8R)-8-(tert-butyl)-3-(3,5-dichlorophenyl)-2-oxo-1,4-diazaspiro[4.5]dec-3-en-1-yl)-4,4-dimethylpentyl)benzamide (SCH 900822): a potent and selective glucagon receptor antagonist” (J Med Chem, 2014).

How the values were obtained:
[1] = target: T1, Glucagon receptor (Homo sapiens, UniProt P47871); assay: Antagonist activity at human GCGR expressed in CHO cells assessed as inhibition of glucagon-stimulated cAMP production preincubated for 30 mins followed by glucagon induction measured after 45 mins by LANCE assay; type: functional, cell-based
T1 sequence (P47871 whole entry): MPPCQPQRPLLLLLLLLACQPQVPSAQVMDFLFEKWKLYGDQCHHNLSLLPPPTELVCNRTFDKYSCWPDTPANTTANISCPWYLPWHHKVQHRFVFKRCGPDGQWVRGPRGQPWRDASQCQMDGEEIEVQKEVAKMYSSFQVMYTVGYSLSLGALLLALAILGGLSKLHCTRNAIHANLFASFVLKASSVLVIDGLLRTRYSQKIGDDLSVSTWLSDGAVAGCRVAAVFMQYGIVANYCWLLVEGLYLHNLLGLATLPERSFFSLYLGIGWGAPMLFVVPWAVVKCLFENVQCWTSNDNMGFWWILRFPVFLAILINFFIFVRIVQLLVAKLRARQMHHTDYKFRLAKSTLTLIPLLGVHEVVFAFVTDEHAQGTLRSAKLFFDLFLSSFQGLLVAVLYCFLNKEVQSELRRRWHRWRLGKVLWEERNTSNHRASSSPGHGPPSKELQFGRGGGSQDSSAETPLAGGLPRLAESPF

[2] = target: T2, Glucagon-like peptide 1 receptor (Homo sapiens, UniProt P43220); settings: CHO, at 10 µM
T2 sequence (P43220 whole entry): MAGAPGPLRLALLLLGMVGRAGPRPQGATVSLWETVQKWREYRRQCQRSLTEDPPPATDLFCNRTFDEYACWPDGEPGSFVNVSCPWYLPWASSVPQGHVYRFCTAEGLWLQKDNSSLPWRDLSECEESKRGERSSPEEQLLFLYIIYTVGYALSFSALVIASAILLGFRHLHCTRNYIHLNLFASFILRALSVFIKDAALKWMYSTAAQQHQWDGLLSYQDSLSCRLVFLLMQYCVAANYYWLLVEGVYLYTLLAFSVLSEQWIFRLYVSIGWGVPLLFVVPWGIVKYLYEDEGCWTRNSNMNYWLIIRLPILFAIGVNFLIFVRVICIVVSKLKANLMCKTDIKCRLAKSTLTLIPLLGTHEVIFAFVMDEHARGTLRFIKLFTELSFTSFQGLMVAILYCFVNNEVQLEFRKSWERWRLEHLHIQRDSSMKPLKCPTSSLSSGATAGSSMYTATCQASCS
Description: Antagonist activity at human GLP-1R expressed in CHO cells assessed as inhibition of GLP-1-stimulated cAMP production at 10 uM preincubated for 30 mins followed by GLP-1 induction measured after 45 mins by LANCE assay relative to control

[3] = target: Glucagon receptor (Mus musculus, UniProt Q61606); type: cell membranes, Liver, Membrane
Sequence of Glucagon receptor (Mus musculus, UniProt Q61606) (Q61606 whole entry): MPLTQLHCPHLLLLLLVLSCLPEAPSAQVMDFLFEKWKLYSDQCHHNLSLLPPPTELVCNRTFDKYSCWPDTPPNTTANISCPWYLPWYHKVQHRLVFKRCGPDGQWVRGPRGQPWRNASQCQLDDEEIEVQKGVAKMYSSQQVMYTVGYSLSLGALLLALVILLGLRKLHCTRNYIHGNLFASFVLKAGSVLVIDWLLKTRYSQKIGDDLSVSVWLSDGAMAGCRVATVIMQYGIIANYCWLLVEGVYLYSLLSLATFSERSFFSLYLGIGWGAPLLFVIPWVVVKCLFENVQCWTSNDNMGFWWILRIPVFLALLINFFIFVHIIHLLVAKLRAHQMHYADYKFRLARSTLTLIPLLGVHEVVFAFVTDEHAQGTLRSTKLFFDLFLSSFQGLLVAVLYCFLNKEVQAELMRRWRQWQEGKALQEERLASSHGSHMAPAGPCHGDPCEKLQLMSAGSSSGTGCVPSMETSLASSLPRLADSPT
Description: Displacement of [125I]-glucagon from GCGR in mouse liver membranes after 60 mins by scintillation counting analysis

[4] = target: T1, Glucagon receptor; assay: biochemical; type: cell-based, CHO
Description: Displacement of [125I]-glucagon from recombinant human GCGR expressed in CHO cells after 60 mins by scintillation counting analysis

[5] = target: T2, Glucagon-like peptide 1 receptor; assay: Antagonist activity at human GLP-1R expressed in CHO cells assessed as inhibition of GLP-1-stimulated cAMP production preincubated for 30 mins followed by GLP-1 induction measured after 45 mins by LANCE assay; type: functional, cell-based

Compound | IC50 [1] [µM] | inhibition [2] [%] | IC50 [3] [µM] | IC50 [4] [µM] | IC50 [5] [µM]
CC(C)(C)[C@H]1CC[C@]2(CC1)N=C(c1ccc(Cl)c(Cl)c1)C(=O)N2Cc1ccc(C(=O)NCCC(=O)O)cc1 | 1.6 | < 50 | – | – | –
CC(C)(C)[C@H]1CC[C@]2(CC1)N=C(c1cccc(C(F)(F)F)c1)C(=O)N2Cc1ccc(C(=O)NCCC(=O)O)cc1 | 0.51 | < 50 | 10 | – | –
CC(C)(C)[C@H]1CC[C@]2(CC1)N=C(c1ccccc1F)C(=O)N2Cc1ccc(C(=O)NCCC(=O)O)cc1 | 0.73 | < 50 | > 10 | > 10 | –
CC(C)(C)[C@H]1CC[C@]2(CC1)N=C(c1ccc(OC(F)(F)F)cc1)C(=O)N2Cc1ccc(C(=O)NCCC(=O)O)cc1 | 1.9 | < 50 | – | – | –
CC(C)(C)[C@H]1CC[C@]2(CC1)N=C(c1ccc(F)cc1)C(=O)N2Cc1ccc(C(=O)NCCC(=O)O)cc1 | 1.9 | < 50 | – | – | –
CC(C)CC[C@H](c1ccc(C(=O)NCc2nn[nH]n2)cc1)N1C(=O)C(c2cc(Cl)cc(Cl)c2)=N[C@]12CC[C@@H](C(C)(C)C)CC2 | 0.15 | – | 0.28 | 0.022 | > 10
C[C@H](c1ccc(C(=O)NCCC(=O)O)cc1)N1C(=O)C(c2cccc(OC(F)(F)F)c2)=N[C@]12CC[C@@H](C(C)(C)C)CC2 | 0.84 | – | 1.5 | 0.33 | 2.2
CC(C)(C)[C@H]1CC[C@]2(CC1)N=C(c1ccc(Cl)cc1)C(=O)N2Cc1ccc(C(=O)NCCC(=O)O)cc1 | 1.4 | < 50 | > 10 | 0.94 | –
C[C@H](c1ccc(C(=O)NCCC(=O)O)cc1)N1C(=O)C(c2cccc(C3CC3)c2)=N[C@]12CC[C@@H](C(C)(C)C)CC2 | 0.34 | – | 1.7 | 0.056 | > 10
CC(C)(C)CC[C@H](c1ccc(C(=O)NCc2nn[nH]n2)cc1)N1C(=O)C(c2cncc(Cl)c2)=N[C@]12CC[C@@H](C(C)(C)C)CC2 | 0.48 | – | 0.084 | 0.038 | > 10
CC(C)(C)CC[C@H](c1ccc(C(=O)NCc2nn[nH]n2)cc1)N1C(=O)C(c2cnccc2C(F)(F)F)=N[C@]12CC[C@@H](C(C)(C)C)CC2 | 1.2 | – | 0.096 | 0.022 | > 10
CC(C)(C)CC[C@H](c1ccc(C(=O)NCCC(=O)O)cc1)N1C(=O)C(c2cc(Cl)cc(Cl)c2)=N[C@]12CC[C@@H](C(C)(C)C)CC2 | 0.048 | – | 0.52 | 0.016 | 2
C[C@H](c1ccc(C(=O)NCCC(=O)O)cc1)N1C(=O)C(c2cc(Cl)cc(Cl)c2)=N[C@]12CC[C@@H](C(C)(C)C)CC2 | 0.14 | – | 1.2 | 0.096 | 6.4
CC(C)(C)[C@H]1CC[C@]2(CC1)N=C(c1cc(Cl)cc(Cl)c1)C(=O)N2[C@H](CCC(F)(F)F)c1ccc(C(=O)NCc2nn[nH]n2)cc1 | 0.37 | – | 0.11 | 0.004 | > 10
C[C@H](c1ccc(C(=O)NCCC(=O)O)cc1)N1C(=O)C(c2ccc(C(F)(F)F)cc2)=N[C@]12CC[C@@H](C(C)(C)C)CC2 | 0.91 | – | 2.8 | 0.17 | > 10
C[C@H](c1ccc(C(=O)NCCC(=O)O)cc1)N1C(=O)C(c2cc(F)cc(Cl)c2)=N[C@]12CC[C@@H](C(C)(C)C)CC2 | 0.11 | – | 0.81 | 0.006 | 5.6
C[C@H](c1ccc(C(=O)NCCC(=O)O)cc1)N1C(=O)C(c2cccc(Cl)c2F)=N[C@]12CC[C@@H](C(C)(C)C)CC2 | 0.63 | – | 4 | 0.62 | > 10
Cc1cccc(C2=N[C@]3(CC[C@@H](C(C)(C)C)CC3)N([C@H](C)c3ccc(C(=O)NCCC(=O)O)cc3)C2=O)c1 | 0.49 | – | 1.7 | 0.15 | > 10
CC(C)(C)[C@H]1CC[C@]2(CC1)N=C(c1ccc(C(F)(F)F)cc1)C(=O)N2Cc1ccc(C(=O)NCCC(=O)O)cc1 | 0.8 | < 50 | 9.6 | – | –
C[C@H](c1ccc(C(=O)NCCC(=O)O)cc1)N1C(=O)C(c2ccc(F)c(Cl)c2)=N[C@]12CC[C@@H](C(C)(C)C)CC2 | 0.44 | – | 2.3 | 0.044 | 4.3
C[C@H](c1ccc(C(=O)NCCC(=O)O)cc1)N1C(=O)C(c2ccc(F)cc2)=N[C@]12CC[C@@H](C(C)(C)C)CC2 | 0.43 | – | 2.5 | 0.085 | 7.8
C[C@H](c1ccc(C(=O)NCCC(=O)O)cc1)N1C(=O)C(c2cccc(C(F)(F)F)c2)=N[C@]12CC[C@@H](C(C)(C)C)CC2 | 0.28 | – | 2.2 | 0.72 | 6.3

Compound | IC50 [1] [µM] | inhibition [2] [%] | IC50 [3] [µM] | IC50 [4] [µM] | IC50 [5] [µM]
CC(C)(C)CC[C@H](c1ccc(C(=O)NCc2nn[nH]n2)cc1)N1C(=O)C(c2cccc(C(F)(F)F)c2)=N[C@]12CC[C@@H](C(C)(C)C)CC2 | 0.18 | – | 0.14 | 0.013 | > 10
C[C@H](c1ccc(C(=O)NCCC(=O)O)cc1)N1C(=O)C(c2ccc(OC(F)(F)F)cc2)=N[C@]12CC[C@@H](C(C)(C)C)CC2 | 1.1 | – | 8 | 0.067 | > 10
CC(C)(C)[C@H]1CC[C@]2(CC1)N=C(c1cccc(Cl)c1)C(=O)N2Cc1ccc(C(=O)NCCC(=O)O)cc1 | 0.77 | < 50 | > 10 | 0.77 | –
C[C@H](c1ccc(C(=O)NCCC(=O)O)cc1)N1C(=O)C(c2cccc(Cl)c2)=N[C@]12CC[C@@H](C(C)(C)C)CC2 | 0.48 | – | 3.3 | 0.13 | 3.9
CC(C)C[C@H](c1ccc(C(=O)NCc2nn[nH]n2)cc1)N1C(=O)C(c2cc(Cl)cc(Cl)c2)=N[C@]12CC[C@@H](C(C)(C)C)CC2 | 0.76 | – | 0.42 | 0.015 | > 10
CCCCC[C@H](c1ccc(C(=O)NCc2nn[nH]n2)cc1)N1C(=O)C(c2cc(Cl)cc(Cl)c2)=N[C@]12CC[C@@H](C(C)(C)C)CC2 | 0.13 | – | 0.31 | 0.024 | > 10
C[C@H](c1ccc(C(=O)NCCC(=O)O)cc1)N1C(=O)C(c2cccc(F)c2)=N[C@]12CC[C@@H](C(C)(C)C)CC2 | 0.56 | – | 4.4 | 0.49 | > 10
CCCC[C@H](c1ccc(C(=O)NCc2nn[nH]n2)cc1)N1C(=O)C(c2cc(Cl)cc(Cl)c2)=N[C@]12CC[C@@H](C(C)(C)C)CC2 | 0.38 | – | 0.42 | 0.023 | > 10
CC(C)[C@H]1CC[C@]2(CC1)N=C(c1cc(Cl)cc(Cl)c1)C(=O)N2[C@H](CCC(C)(C)C)c1ccc(C(=O)NCc2nn[nH]n2)cc1 | 0.052 | – | 0.2 | 0.031 | > 10
CC(C)(C)CC[C@H](c1ccc(C(=O)NCc2nn[nH]n2)cc1)N1C(=O)C(c2cccc(Cl)c2)=N[C@]12CC[C@@H](C(C)(C)C)CC2 | 0.13 | – | 0.13 | 0.014 | > 10
CC(C)(C)CC[C@H](c1ccc(C(=O)NCc2nn[nH]n2)cc1)N1C(=O)C(c2cc(F)cc(F)c2)=N[C@]12CC[C@@H](C(C)(C)C)CC2 | 0.11 | – | 0.14 | 0.023 | > 10
CC(C)(C)[C@H]1CC[C@]2(CC1)N=C(c1cc(Cl)cc(Cl)c1)C(=O)N2Cc1ccc(C(=O)NCCC(=O)O)cc1 | 0.29 | < 50 | > 10 | 0.52 | –
C[C@H](c1ccc(C(=O)NCCC(=O)O)cc1)N1C(=O)C(c2ccccc2Cl)=N[C@]12CC[C@@H](C(C)(C)C)CC2 | 2.9 | – | 5.4 | 0.52 | > 10
CC(C)(C)CC[C@H](c1ccc(C(=O)NCc2nn[nH]n2)cc1)N1C(=O)C(c2ccc(C(F)(F)F)cc2)=N[C@]12CC[C@@H](C(C)(C)C)CC2 | 0.16 | – | 0.19 | 0.007 | > 10
CC(C)(C)[C@H]1CC[C@]2(CC1)N=C(c1cc(Cl)cc(Cl)c1)C(=O)N2CCc1ccc(C(=O)NCCC(=O)O)cc1 | 0.17 | – | 1.5 | 0.17 | > 10
CC(C)(C)[C@H]1CC[C@]2(CC1)N=C(c1ccccc1Cl)C(=O)N2Cc1ccc(C(=O)NCCC(=O)O)cc1 | 6.8 | < 50 | – | – | –
CC1(CC[C@H](c2ccc(C(=O)NCc3nn[nH]n3)cc2)N2C(=O)C(c3cc(Cl)cc(Cl)c3)=N[C@]23CC[C@@H](C(C)(C)C)CC3)CC1 | 0.1 | – | 0.11 | 0.017 | > 10
CC(CN1C(=O)C(c2cc(Cl)cc(Cl)c2)=N[C@]12CC[C@@H](C(C)(C)C)CC2)c1ccc(C(=O)NCCC(=O)O)cc1 (stereo not given in full) | 0.26 | – | 3.3 | 0.89 | 7.3
CC(C)(C)[C@H]1CC[C@]2(CC1)N=C(c1ccccc1)C(=O)N2Cc1ccc(C(=O)NCCC(=O)O)cc1 | 3.2 | < 50 | – | – | –
CC(C)(C)CC[C@H](c1ccc(C(=O)NCc2nn[nH]n2)cc1)N1C(=O)C(c2ccc(F)c(F)c2)=N[C@]12CC[C@@H](C(C)(C)C)CC2 | 0.18 | – | 0.17 | 0.013 | > 10
CCC[C@H](c1ccc(C(=O)NCc2nn[nH]n2)cc1)N1C(=O)C(c2cc(Cl)cc(Cl)c2)=N[C@]12CC[C@@H](C(C)(C)C)CC2 | 0.22 | – | 0.5 | 0.055 | > 10
